Test system: ICI myocarditis
Assay: Longitudinal follow-up of one ICI myocarditis patient (MCE1) treated with glucocorticoids: cardiac biomarker troponin I
Assay type: in vivo, human
Conditions: one patient with MRI-confirmed ICI myocarditis; 60 mg/day from first day of diagnosis, four-week steroid taper
Description: In order to evaluate the time evolution of clonally-expanded T-cells in ICI myocarditis, we longitudinally analyzed PBMCs from one patient with MRI-confirmed myocarditis at early (t=0 days) and late (t=65 days) timepoints (FIG. 5A). This patient received glucocorticoids (60 mg/day of prednisone) for treatment of their myocarditis on the first day of their diagnosis (after blood collection) and underwent a successful four-week steroid taper with resolution of their cardiac biomarkers (troponin I, measured in ng/ml) by day 25. […] Due to the availability of early and late myocarditis blood samples, our study also provides new insight into the time-course of cellular and molecular changes that occur throughout the onset and resolution of ICI myocarditis. ICI myocarditis has a notoriously unpredictable time course and can occur with a median onset of 17-34 days after initiation of ICI therapy, although cases have been identified anywhere from 1 to 240 days from start of therapy (34,38-40). In our patient, we were able to collect blood at the time of diagnosis of the positive troponin I of 10 ng/ml (t=0) and track to day 65 after a full four-week course of glucocorticoids and resolution of clinical signs of myocarditis. […]

For `C[C@]12C=CC(=O)C=C1CC[C@@H]1[C@@H]2C(=O)C[C@@]2(C)[C@H]1CC[C@]2(O)C(=O)CO` [prednisone], the “resolution of cardiac biomarkers (troponin I)” value was ≤ 25 days.
